Laboratory results reported in PubChem BioAssay AID2305 (GlaxoSmithKline (GSK), 2010).

Each molecule was assayed on P. falciparum 3D7 growth, pLDH absorbance (assay: P. falciparum 3D7 growth inhibition, dose response, strain 3D7 (AID 2305)).
For O=c1cc(NCCCNCc2ccc(Cl)c(Cl)c2)[nH]c2ccc(Oc3ccccc3)cc12, the IC50 was 850 nM. For O=S(=O)(NCCN1CCCC1)c1ccc(-c2ccc(CNCc3ccsc3)cc2)cc1, the IC50 was 850 nM. Cc1cc(N[C@@H](C)C(=O)Nc2ccccc2)nc(NCCc2ccc(F)cc2)n1 showed an IC50 of 1110 nM. Cc1cc(N[C@@H](Cc2ccccc2)C(=O)NCc2cccc(F)c2)nc(NCCc2cccnc2)n1 was tested, and the IC50 was 1340 nM. Molecule O=C(Nc1ccccc1-c1ccccc1)C1CCCN1C(=O)Nc1ccc(Cl)cc1 (centres undefined) has an IC50 of 790 nM. For O=[N+]([O-])c1ccc(CNCCCCCCNCc2ccc([N+](=O)[O-])c3ccccc23)c2ccccc12, the IC50 was 790 nM. CCCCCCNCc1c(O)ccc2c(CNCCCCCC)c(O)ccc12 gave an IC50 of 130 nM. O=c1[nH]c(NCCCNCc2cc3c(Cl)cc(Cl)cc3[nH]2)nc2ccccc12 gave an IC50 of 990 nM. COc1ccc(-c2ccc(NC(=O)c3ccc(F)cc3)cc2)cc1CNC(C)C was tested, and the IC50 was 760 nM. CC(C)(C)c1ccc2nc(-c3ccc(C(=O)NC4CCN(Cc5ccccc5)CC4)s3)[nH]c2c1 was tested, and the IC50 was 360 nM. O=c1cnc2ccc(F)cc2n1CCN1CCC(NCc2cc(-c3ccccc3)cs2)CC1 was tested, and the IC50 was 860 nM. CN(C)Cc1c(O)ccc2oc(Cc3ccccc3)cc12 was tested, and the IC50 was 910 nM. Nc1ccc(-c2nc3ccc(-c4ccc5nc(-c6ccc(N)cc6)[nH]c5c4)cc3[nH]2)cc1 showed an IC50 of 130 nM. Molecule COc1ccc(-c2cccc(CNCc3ccc(F)cc3)c2)cc1S(=O)(=O)NCCN1CCCC1 has an IC50 of 1850 nM. Nc1ccn([C@@H]2O[C@H](COC(c3ccccc3)(c3ccccc3)c3ccccc3)[C@@H](O)[C@@H]2O)c(=O)n1 showed an IC50 of 830 nM. In the case of O=C(Nc1ccc(-c2nc3ccccc3[nH]2)cc1)C1CCN(Cc2ccc(F)cc2)CC1, the IC50 is reported as 840 nM. Cc1cc(N2CCN(CC3CCCCC3)CC2)nc(Nc2ccc(Br)cc2)n1 showed an IC50 of 1090 nM. CC(C)CNCc1cccc(-c2ccc(CN(CCCN3CCN(C)CC3)C(=O)/C=C/c3ccccc3)cc2)c1 gave an IC50 of 860 nM. Cn1nccc1C(=O)NCCNCc1ccc(-c2ccc(-c3nc4ccc(F)cc4[nH]3)cc2)cc1 showed an IC50 of 300 nM. With O=C(N[C@@H](CC1CCCCC1)C(=O)NCCN1CCOCC1)c1ccc(O)c(-c2ccc(Cl)c(Cl)c2)c1 the IC50 was 180 nM. With Oc1ccc(CCCNc2nc(NCc3ccccc3-c3ccccc3)nc(N3CCNCC3)n2)cc1 the IC50 was 710 nM. COc1ccc(CN2CCC(NCc3cccc([N+](=O)[O-])c3)CC2)cc1 gave an IC50 of 910 nM. In the case of CN1CCC(N(Cc2ccc(-c3ccc(C(F)(F)F)cc3)cc2)C(=O)Cn2cc(Cc3cnn(C)c3)c(=O)nc2SCc2cccc(F)c2F)CC1, the IC50 is reported as 930 nM. In the case of CN(C)S(=O)(=O)c1ccc(Nc2nc(NCCC3C=NC=N3)nc3cc[nH]c(=O)c23)cc1 (centres undefined), the IC50 is reported as 930 nM. For O=C(NCCCCN1CC[C@@H]2c3cccc(O)c3CC[C@H]21)c1ccc(-c2ccccc2)cc1, the IC50 was 1380 nM. Molecule NC(=NCc1ccccc1Cl)NCCc1c[nH]c2ccccc12 has an IC50 of 110 nM. For Cc1cccc(-n2c(Nc3ccc(C)c(Cl)c3)nc3ccc(S(=O)(=O)NC(C)C(C)C)cc32)c1 (centres undefined), the IC50 was 650 nM. For O=S(=O)(c1c(Cl)cc(Cl)cc1Cl)N1CCCCC(c2ccc(F)c(F)c2)=N1, the IC50 was 590 nM. CCC[C@@H]([C@@H](CC(C)C)C(=O)N[C@@H](CCCNc1nccc(C(F)(F)F)n1)C(=O)Nc1nccs1)N(O)C=O was tested, and the IC50 was 370 nM. For C=CCOC(=O)N1CCC(CNCc2cccc(-c3cccc(-c4nc5ccc(F)cc5[nH]4)c3)c2)C1 (centres undefined), the IC50 was 210 nM. Cc1cccc(CN2CCC(C(=O)Nc3ccc(-c4nc5ccccc5[nH]4)cc3)CC2)n1 gave an IC50 of 920 nM. With COc1cc(OC)cc(C(=O)Nc2cccc(-c3cn4ccc(C)cc4n3)c2)c1 the IC50 was 990 nM. In the case of O=C(Nc1cccc(Cl)c1)OC1CCCN2CCCCC12 (centres undefined), the IC50 is reported as 1020 nM. In the case of O=C(Nc1cccc(Cl)c1)N(CCCn1ccnc1)Cc1csc(-c2ccc(CNCc3ccccc3)cc2)n1, the IC50 is reported as 540 nM. In the case of CCOC(=O)c1ccc(-c2c(C(F)(F)F)noc2-c2cc(CC)c(OC)cc2O)o1, the IC50 is reported as 210 nM. Molecule Cc1ccc(NC(=O)NC2CCN(c3ccnc4cc(Cl)ccc34)C2)cc1 (centres undefined) has an IC50 of 150 nM. With CN1CCC(NCc2ccc(-c3ccc(S(=O)(=O)NCc4ccccc4)cc3)cc2)CC1 the IC50 was 830 nM. Ic1cc(Nc2ncnc3ccsc23)ccc1OCc1ccccc1 gave an IC50 of 770 nM. With O=C(Nc1ccc(OC2CCN(Cc3ccccc3)CC2)c(Cl)c1)c1ccc(F)cc1 the IC50 was 800 nM. Work on Cc1cc(=O)[nH]c(-n2nc(C)cc2NC(=O)C(c2ccccc2)c2ccccc2)n1 yielded an IC50 of 840 nM. CC[C@H](C)[C@@H](C(=O)N1CCOCC1)N1CC[C@H](NS(=O)(=O)CC(C)(C)c2ccc(Cl)cc2)C1=O was tested, and the IC50 was 550 nM. CCCCCCN(CCCCCC)CC(O)c1c(OC)ccc2ccccc12 (centres undefined) showed an IC50 of 570 nM. For COc1ccc(Oc2cnc(N)nc2N)c(C(C)C)c1, the IC50 was 740 nM. In the case of CCC[C@@H]([C@@H](CC1CCCCC1)C(=O)N[C@H](C(=O)Nc1nccc(N)n1)C(C)(C)C)N(O)C=O, the IC50 is reported as 530 nM. CC(C)(C)CCN1CCC(CNC(=O)c2cc(-c3cccc(C(F)(F)F)c3)cs2)C1 (centres undefined) showed an IC50 of 890 nM. CCOC(=O)c1cnc2c(OC)cc(OC)c(Cl)c2c1Nc1ccccc1 was tested, and the IC50 was 870 nM. COc1cc2nc(NCc3ccc(S(N)(=O)=O)cc3)nc(Nc3ccc(Oc4ccccc4)cc3)c2cc1OC was tested, and the IC50 was 440 nM. Molecule Cc1nc(C(C)Nc2nncc(-c3ccc(Cl)cc3)n2)cs1 (centres undefined) has an IC50 of 1330 nM. Work on COc1ccc(C2CCN(C#N)C2)cc1OC1CCCC1 (centres undefined) yielded an IC50 of 230 nM.
